ChEMBL document CHEMBL2424552, “Cytotoxic effect of novel dehydroepiandrosterone derivatives on different cancer cell lines” (2013)

Columns and labels:
Assay type in all cases: functional
MCF7 = experiment: Growth inhibition of human MCF7 cells at 50 uM after 48 hrs by SRB assay relative to control; details: MCF7, 48 h, read-out: GI
SK-LU-1 = experiment: Growth inhibition of human SKLU1 cells at 50 uM after 48 hrs by SRB assay relative to control; details: SK-LU-1, 48 h, read-out: GI
PC-3 = experiment: Growth inhibition of human PC3 cells at 50 uM after 48 hrs by SRB assay relative to control; details: PC-3, 48 h, read-out: GI

SMILES	inhibition of growth at 50 µM (MCF7) [%]	inhibition of growth at 50 µM (SK-LU-1) [%]	inhibition of growth at 50 µM (PC-3) [%]
C[C@]12CC[C@H](OC(=O)c3ccc(F)cc3)CC1=CC[C@@H]1[C@@H]2CC[C@]2(C)C(n3cccn3)=C(C=O)C[C@@H]12	50.7	5.5	20.5
C[C@]12CC[C@H](OC(=O)c3ccc(C#N)cc3)CC1=CC[C@@H]1[C@@H]2CC[C@]2(C)C(n3cncn3)=C(C=O)C[C@@H]12	100	89.9	100
C[C@]12CC[C@H](OC(=O)C3CCCC3)CC1=CC[C@@H]1[C@@H]2CC[C@]2(C)C(n3cncn3)=C(C=O)C[C@@H]12	0	0	23.8
C[C@]12CC[C@H](OC(=O)c3ccc([N+](=O)[O-])cc3)CC1=CC[C@@H]1[C@@H]2CC[C@]2(C)C(n3cccn3)=C(C=O)C[C@@H]12	20.2	7.5	16.7
Cc1ccc(C(=O)O[C@H]2CC[C@@]3(C)C(=CC[C@@H]4[C@@H]3CC[C@]3(C)C(n5cncn5)=C(C=O)C[C@@H]43)C2)cc1	48.7	68	3.1
C[C@]12CC[C@H](OC(=O)c3ccc(I)cc3)CC1=CC[C@@H]1[C@@H]2CC[C@]2(C)C(n3cccn3)=C(C=O)C[C@@H]12	96.8	93.5	58.4
C[C@]12CC[C@H](OC(=O)c3ccc(C(F)(F)F)cc3)CC1=CC[C@@H]1[C@@H]2CC[C@]2(C)C(n3cncn3)=C(C=O)C[C@@H]12	100	89.1	100
C[C@]12CC[C@H](OC(=O)c3ccc([N+](=O)[O-])cc3)CC1=CC[C@@H]1[C@@H]2CC[C@]2(C)C(n3cncn3)=C(C=O)C[C@@H]12	100	100	85.7
C[C@]12CC[C@H](OC(=O)C3CCC3)CC1=CC[C@@H]1[C@@H]2CC[C@]2(C)C(n3cncn3)=C(C=O)C[C@@H]12	16.5	27	0
C[C@]12CC[C@H](OC(=O)c3ccccc3)CC1=CC[C@@H]1[C@@H]2CC[C@]2(C)C(n3cccn3)=C(C=O)C[C@@H]12	32.6	5.8	31.4
C[C@]12CC[C@H](OC(=O)C3CCCCC3)CC1=CC[C@@H]1[C@@H]2CC[C@]2(C)C(n3cncn3)=C(C=O)C[C@@H]12	11	24.9	0
C[C@]12CC[C@H](OC(=O)c3ccc(Cl)cc3)CC1=CC[C@@H]1[C@@H]2CC[C@]2(C)C(n3cccn3)=C(C=O)C[C@@H]12	32.4	20.7	24.6
C[C@]12CC[C@H](OC(=O)c3ccc(Br)cc3)CC1=CC[C@@H]1[C@@H]2CC[C@]2(C)C(n3cccn3)=C(C=O)C[C@@H]12	18.5	17.4	3.7
C[C@]12CC[C@H](OC(=O)c3ccccc3)CC1=CC[C@@H]1[C@@H]2CC[C@]2(C)C(n3cncn3)=C(C=O)C[C@@H]12	33.5	39.7	21.8
C[C@]12CC[C@H](OC(=O)C3CCCCCC3)CC1=CC[C@@H]1[C@@H]2CC[C@]2(C)C(n3cncn3)=C(C=O)C[C@@H]12	78	94.7	36.8
C[C@]12CC[C@H](OC(=O)c3ccc(C(F)(F)F)cc3)CC1=CC[C@@H]1[C@@H]2CC[C@]2(C)C(n3cccn3)=C(C=O)C[C@@H]12	0	73.3	78.2
C[C@]12CC[C@H](OC(=O)c3ccc(C#N)cc3)CC1=CC[C@@H]1[C@@H]2CC[C@]2(C)C(n3cccn3)=C(C=O)C[C@@H]12	81.2	22.5	30.4
COc1ccc(C(=O)O[C@H]2CC[C@@]3(C)C(=CC[C@@H]4[C@@H]3CC[C@]3(C)C(n5cncn5)=C(C=O)C[C@@H]43)C2)cc1	23	9.2	0
Cc1ccc(C(=O)O[C@H]2CC[C@@]3(C)C(=CC[C@@H]4[C@@H]3CC[C@]3(C)C(n5cccn5)=C(C=O)C[C@@H]43)C2)cc1	0	8.5	0
C[C@]12CC[C@H](OC(=O)C3CC3)CC1=CC[C@@H]1[C@@H]2CC[C@]2(C)C(n3cncn3)=C(C=O)C[C@@H]12	100	100	88.7
C[C@]12CC[C@H](O)CC1=CC[C@@H]1[C@@H]2CC[C@]2(C)C(n3cccn3)=C(C=O)C[C@@H]12	41.6	100	100
CC(=O)N1CCN(c2ccc(OCC3COC(Cn4ccnc4)(c4ccc(Cl)cc4Cl)O3)cc2)CC1 (centres undefined) [KETOCONAZOLE]	95.2	73.4	88.5
COc1ccc(C(=O)O[C@H]2CC[C@@]3(C)C(=CC[C@@H]4[C@@H]3CC[C@]3(C)C(n5cccn5)=C(C=O)C[C@@H]43)C2)cc1	100	80	51.5
